The conditions of series [1]: ref Casy and Parfitt, 1986; cited from earlier work.
For series [2], the target named is T1, recombinant human P-gp (Homo sapiens, UniProt P08183). Conditions: cited from earlier work.
Series [3] relates to P-gp (mdr1a/b) influence on antinociception. More on the design: species or system mice. Conditions: mouse, in vivo; for Influence of P-gp ablation on antinociceptive activity: sc.
For series [4] the following is noted: 20 mg/kg, for 45 min in wild type mice; ref Thompson et al., 2000; cited from earlier work.
The conditions of series [5]: mouse, in vivo.
In series [6] the target is T1, recombinant human P-gp.
For series [7] the following is noted: tail-flick, hotplate and paraphenylquinone assays; ref DEC, NIDA; cited from earlier work.
The next series addresses μ receptor. The following applies: read-out: Ki at μ receptor, as determined by DEC, NIDA, ref DEC; cited from earlier work.
The conditions of series [8]: in vivo; cited from earlier work.

Each structure is given as a SMILES string. Where “and” joins values, the source holds several entries; their conditions need not be identical. Equal values may be shown once. Read-outs that look alike come from different tables or passages of the source. Marks after values point to notes of the source that are not given here.

T1 sequence (P08183 whole entry): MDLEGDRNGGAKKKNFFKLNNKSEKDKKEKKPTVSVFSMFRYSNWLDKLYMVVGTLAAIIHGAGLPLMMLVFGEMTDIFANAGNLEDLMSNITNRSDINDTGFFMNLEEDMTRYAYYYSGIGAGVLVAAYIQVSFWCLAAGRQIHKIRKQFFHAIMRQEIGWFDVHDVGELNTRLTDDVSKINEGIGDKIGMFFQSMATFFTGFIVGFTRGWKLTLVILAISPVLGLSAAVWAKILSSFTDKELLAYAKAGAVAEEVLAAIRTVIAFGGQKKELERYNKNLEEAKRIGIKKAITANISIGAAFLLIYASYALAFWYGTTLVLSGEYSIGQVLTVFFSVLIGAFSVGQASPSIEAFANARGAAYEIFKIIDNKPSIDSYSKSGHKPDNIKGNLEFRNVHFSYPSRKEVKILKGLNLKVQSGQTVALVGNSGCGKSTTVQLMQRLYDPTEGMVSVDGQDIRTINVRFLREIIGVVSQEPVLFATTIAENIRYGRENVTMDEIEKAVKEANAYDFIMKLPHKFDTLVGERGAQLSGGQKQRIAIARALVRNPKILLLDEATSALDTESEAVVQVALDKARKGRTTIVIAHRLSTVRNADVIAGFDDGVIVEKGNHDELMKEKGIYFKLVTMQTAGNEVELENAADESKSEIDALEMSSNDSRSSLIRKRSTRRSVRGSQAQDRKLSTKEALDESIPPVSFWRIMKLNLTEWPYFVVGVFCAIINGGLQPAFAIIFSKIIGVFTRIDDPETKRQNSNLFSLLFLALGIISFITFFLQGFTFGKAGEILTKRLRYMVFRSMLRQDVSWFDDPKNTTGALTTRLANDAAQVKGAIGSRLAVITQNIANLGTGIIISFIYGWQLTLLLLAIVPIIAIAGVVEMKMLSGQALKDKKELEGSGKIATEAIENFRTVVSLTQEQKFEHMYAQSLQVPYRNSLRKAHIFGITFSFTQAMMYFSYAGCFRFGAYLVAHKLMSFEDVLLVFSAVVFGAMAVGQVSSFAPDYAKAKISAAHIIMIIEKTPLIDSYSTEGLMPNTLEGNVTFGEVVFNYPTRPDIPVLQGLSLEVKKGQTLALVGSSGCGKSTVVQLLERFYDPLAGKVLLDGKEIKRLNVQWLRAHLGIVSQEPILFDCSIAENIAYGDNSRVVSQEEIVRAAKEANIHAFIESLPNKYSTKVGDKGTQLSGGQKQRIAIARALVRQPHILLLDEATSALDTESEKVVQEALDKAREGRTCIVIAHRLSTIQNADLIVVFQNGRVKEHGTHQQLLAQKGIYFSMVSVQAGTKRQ

Consider `CCOC(=O)C1(c2ccccc2)CCN(C)CC1` [Meperidine], for which, in series [1], the “Intravenous to intraventricular ED10 ratio” value is 8.5. Further, the “Fold stimulation of basal P-gp-ATPase activity” value at recombinant human P-gp [2] is recorded as 1.51 ± 0.29 fold. Moreover, in series [3], the “AUEC ratio mdr1a/b (−/−)/mdr1a/b (+/+)” value was 1.14 ± 0.2, the “mdr1a/b (+/+) (AUEC)” value is reported as 6752.14 ± 917.94 %MPE × min, the “mdr1a/b (−/−) (AUEC)” value turned out to be 7678.40 ± 851.59 %MPE × min and the “Influence of P-gp ablation on antinociceptive activity” value is listed as “no significant influence”.
With `CN1CC[C@]23c4c5ccc(O)c4O[C@H]2[C@@H](O)C=C[C@H]3[C@H]1C5` [Morphine], the “%MPE reached” value in series [4] is on record as ~ 95 %MPE.
The term Ki denotes a measure of affinity in units of concentration, obtained from inhibition or displacement. For `CN1CC[C@]23c4c5ccc(O)c4O[C@H]2CC=C[C@H]3[C@H]1C5` [6-Desoxymorphine], in [5], the Signs of toxicity entry was “no apparent toxicity”. Besides, the “P-gp affinity status from P-gp ATPase assay” value (shortened to “P-gp affinity status”) at recombinant human P-gp [6] is “not to be P-gp substrates”. For the same compound, the “Fold stimulation of basal P-gp-ATPase activity” value on recombinant human P-gp [6] (human) came out at 1.01 ± 0.11 fold. The “Potency relative to morphine (times as potent)” value in series [7] is on record as ~ 10 times. Moreover, in series [3], the “AUEC ratio mdr1a/b (−/−)/mdr1a/b (+/+)” value was 1.14 ± 1.08 and 1.17 ± 0.17; the “Maximum %MPE reached” value came out at 100%; the “Influence of P-gp ablation on antinociceptive activity” value is given as “no significant influence”. Also, the Ki at μ receptor was 2.9 nM.
As for `COc1ccc2c3c1O[C@H]1[C@@H](O)C=C[C@H]4[C@@H](C2)N(C)CC[C@@]341` [Codeine], on recombinant human P-gp [6] (human), the “Fold stimulation of basal P-gp-ATPase activity” value is 1.36 ± 0.07 ^b fold and the “Rate of ATP consumption versus non-treated control (significance)” value is on record as “significantly different (p < 0.05)”.
For the compound `CN1CC[C@]23c4c5ccc(O)c4O[C@H]2C(=O)CC[C@@]3(O)[C@H]1C5` [Oxymorphone], the “Potency relative to morphine (times as potent)” value in [8] is reported as “approximately 10 times”. The “P-gp affinity status” value at recombinant human P-gp [6] is recorded as “not to be P-gp substrates”. At recombinant human P-gp [6] (human), the “Fold stimulation of basal P-gp-ATPase activity” value is on record as 1.12 ± 0.12 fold and the “Stimulation of P-gp ATPase activity (significance)” value was “did not significantly (p > 0.05) stimulate”.
On to `COc1ccc2c3c1O[C@H]1CC=C[C@H]4[C@@H](C2)N(C)CC[C@]314` [6-Desoxycodeine], for which, on recombinant human P-gp [6], the “P-gp affinity status” value was “not to be P-gp substrates”. Moreover, the “Fold stimulation of basal P-gp-ATPase activity” value at recombinant human P-gp [6] (human) was found to be 1.31 ± 0.15 fold.
`C=CCN1CC[C@]23c4c5ccc(O)c4O[C@H]2C(=O)CC[C@@]3(O)[C@H]1C5` [Naloxone]: at recombinant human P-gp [6] (human), the “Fold stimulation of basal P-gp-ATPase activity” value was found to be 1.25 ± 0.11 fold and the “Stimulation of P-gp ATPase activity (significance)” value is given as “did not significantly (p > 0.05) stimulate”.

Source of the values: publication PMC3401594 (International Journal of Pharmaceutics, 2009).
